According to patent publication US9453014B2, “Cyclic amide derivatives as inhibitors of 11-β-hydroxysteroid dehydrogenase and uses thereof” (CONNEXIOS LIFE SCIENCES PVT. LTD., priority 2011, dated 2016):

Target: T1, human full length HSD11 β 1 (Homo sapiens, UniProt P28845)
T1 construct: transient expression of human full length HSD11 β 1 expression vector; host or cells: CHO cells (transient transfection)
Test: In Vitro HSD11β1 Inhibition Assay
Format: cell-based
Details: CHO cells transiently expressing human HSD11β1; 200 nM cortisone+500 uM NADPH overnight; cortisone to cortisol by LC/MS-MS; read-out: 11βHSD1 (IC50)
Outline: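 CHO cells transiently transfected with human full-length HSD11β1 were re-seeded after 24 h and, 24 h later, incubated overnight with 200 nM cortisone plus 500 uM NADPH and inhibitor. Cortisone-to-cortisol conversion was measured by LC/MS-MS. IC50 from an 8-point log concentration–inhibition curve.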

T1 sequence (P28845 whole entry): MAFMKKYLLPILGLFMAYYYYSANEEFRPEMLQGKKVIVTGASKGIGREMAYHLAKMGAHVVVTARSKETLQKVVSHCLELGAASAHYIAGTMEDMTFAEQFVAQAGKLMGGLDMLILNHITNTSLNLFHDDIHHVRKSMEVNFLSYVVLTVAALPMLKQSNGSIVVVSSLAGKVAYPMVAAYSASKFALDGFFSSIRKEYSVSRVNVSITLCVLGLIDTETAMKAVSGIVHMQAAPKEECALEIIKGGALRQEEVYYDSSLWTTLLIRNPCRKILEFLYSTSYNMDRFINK

Compound | IC50 [nM]
O=C(O)C1CCCC2C1CCCN2C(=O)CSc1c[nH]c2cccc(C3CC3)c12 (centres unmarked) [Compound 260, 1-{[(4-cyclopropyl-1H-indol-3-yl)sulfanyl]acetyl}decahydroquinoline-5-carboxylic acid] | > 250
CC(CC(=O)N1CCCC2C(C(=O)O)CCCC21)c1c[nH]c2cccc(-c3ncccc3F)c12 (centres unmarked) [Compound 262, 1-{3-[4-(3-fluoropyridin-2-yl)-1H-indol-3-yl]butanoyl}decahydroquinoline-5-carboxylic acid] | > 250
COc1cccc2[nH]cc(C(C)CC(=O)N3CCCC4C(C(=O)O)CCCC43)c12 (centres unmarked) [Compound 264, 1-[3-(4-methoxy-1H-indol-3-yl)butanoyl]decahydroquinoline-5-carboxylic acid] | > 250
O=C(O)C1CCCC2C1CCCN2C(=O)CC(O)(c1c[nH]c2ccccc12)C(F)(F)F (centres unmarked) [Compound 265, 1-[4,4,4-trifluoro-3-hydroxy-3-(1H-Indol-3-yl)butanoyl]-decahydroquinoline-5-carboxylic acid] | > 250
CCn1cc(C(C)CC(=O)N2CCCC3C(C(=O)O)CCCC32)c2c(Cl)cccc21 (centres unmarked) [Compound 266, 1-[3-(4-chloro-1-ethyl-1H-indol-3-yl)butanoyl]decahydroquinoline-5-carboxylic acid] | > 250
CC(C(=O)N1CCCC2C(C(=O)O)CCCC21)c1c[nH]c2cccc(C3CC3)c12 (centres unmarked) [Compound 267, 1-(2-(4-cyclopropyl-1H-indol-3-yl)propanoyl)decahydroquinoline-5-carboxylic acid] | > 250
Cn1nc(CCC(=O)N2CCCC3C(C(=O)O)CCCC32)c2c(C3CC3)cccc21 (centres unmarked) [Compound 268, 1-(3-(4-cyclopropyl-1-methyl-1H-indazol-3-yl)propanoyl) decahydroquinoline-5-carboxylic acid] | > 250
CC(C)(Sc1nc2ccccc2s1)C(=O)N1CCCC2CCCCC21 (centres unmarked) [Example 74, 2-(1,3-benzothiazol-2-ylsulfanyl)-2-methyl-1-(octahydroquinolin-1(2H)-yl)propan-1-one] | > 250
CC1CCC2CCCCC2N1C(=O)CCc1nc2ccccc2s1 (centres unmarked) [Example 76, 3-(1,3-benzothiazol-2-yl)-1-(2-methyloctahydroquinolin-1 (2H)-yl)propan-1-one] | > 250
COC(=O)C1CCN(C(=O)CCc2nc3ccccc3s2)C2CCCCC12 (centres unmarked) [Example 77, methyl 1-[3-(1,3-benzothiazol-2-yl)propanoyl]decahydroquinoline-4-carboxylate] | > 250
O=C(CCc1nc2ccccc2s1)N1CCOC2CCCCC21 (centres unmarked) [Example 80, 3-(1,3-benzothiazol-2-yl)-1-(octahydro-4H-1,4-benzoxazin-4-yl)propan-1-one] | > 250
O=C(CCc1nc2ccccc2s1)N1CC2CCCCC2C1 (centres unmarked) [Example 82, 3-(1,3-benzothiazol-2-yl)-1-(octahydro-2H-isoindol-2-yl)propan-1-one] | > 250
CC1CC2CCCCC2N1C(=O)CCc1nc2ccccc2s1 (centres unmarked) [Example 83, 3-(1,3-benzothiazol-2-yl)-1-(2-methyloctahydro-1H-indol-1-yl)propan-1-one] | > 250
O=C(CCc1cn(S(=O)(=O)c2ccccc2)c2ncccc12)N1CCCC2CCCCC21 (centres unmarked) [Example 85, 1-(octahydroquinolin-1(2H)-yl)-3-[1-(phenylsulfonyl)-1H-pyrrolo[2,3-b]pyridin-3-yl]propan-1-one] | > 250
O=C(CCc1n[nH]c2ccccc12)N1CCCC2CCCCC21 (centres unmarked) [Example 88, 3-(1H-indazol-3-yl)-1-(octahydroquinolin-1(2H)-yl)propan-1-one] | > 250
O=C(CCn1nnc2ccccc21)N1CCOC2CCCCC21 (centres unmarked) [Example 91, 3-(1H-benzotriazol-1-yl)-1-(octahydro-4H-1,4-benzoxazin-4-yl)propan-1-one] | > 250
CC(=O)NC(Cc1c[nH]c2ccccc12)C(=O)N1CCCC2CCCCC21 (centres unmarked) [Example 96, N-[3-(1H-indol-3-yl)-1-(octahydroquinolin-1(2H)-yl)-1-oxopropan-2-yl]acetamide] | > 250

Further lines, results first:

IC50 [nM] | Compound
200 to 250 | CC(CC(=O)N1CCCC2C(C(=O)O)CCCC21)c1cn(C2CC2)c2cccc(Cl)c12 (centres unmarked) [Compound 261, 1-[3-(4-chloro-1-cyclopropyl-1H-indol-3-yl)butanoyl]decahydroquinoline-5-carboxylic acid]
< 100 | CC(CC(=O)N1CCCC2C(C(=O)O)CCCC21)c1cn(C)c2cccc(-c3ccc(F)o3)c12 (centres unmarked) [Compound 263, 1-{3-[4-(5-fluorofuran-2-yl)-1-methyl-1H-indol-3-yl]butanoyl}decahydroquinoline-5-carboxylic acid]
< 100 | O=C(CCc1nc2ccccc2s1)N1CCCC2CCCCC21 (centres unmarked) [Example 75, 3-(1,3-benzothiazol-2-yl)-1-(octahydroquinolin-1(2H)-yl)propan-1-one]
< 100 | CC12CCCCC1N(C(=O)CCc1nc3ccccc3s1)CCC2 (centres unmarked) [Example 78, 3-(1,3-benzothiazol-2-yl)-1-(4a-methyloctahydroquinolin-1(2H)-yl)propan-1-one]
< 100 | O=C(CCc1nc2ccccc2s1)N1CCC2CCCCC21 (centres unmarked) [Example 81, 3-(1,3-benzothiazol-2-yl)-1-(octahydro-1H-indol-1-yl)propan-1-one]
< 100 | O=C(CCc1c[nH]c2ncccc12)N1CCCC2CCCCC21 (centres unmarked) [Example 84, 1-(octahydroquinolin-1(2H)-yl)-3-(1H-pyrrolo[2,3-b]pyridin-3-yl)propan-1-one]
< 100 | CC1CCC2CCCCC2N1C(=O)CCc1c[nH]c2ncccc12 (centres unmarked) [Example 86, 1-(2-methyloctahydroquinolin-1(2H)-yl)-3-(1H-pyrrolo[2,3-b]pyridin-3-yl)propan-1-one]
< 100 | Cn1cc(CCC(=O)N2CCCC3CCCCC32)c2cccnc21 (centres unmarked) [Example 87, 3-(1-methyl-1H-pyrrolo[2,3-b]pyridin-3-yl)-1-(octahydroquinolin-1 (2H)-yl)propan-1-one]
150 to 200 | Cn1nc(CCC(=O)N2CCCC3CCCCC32)c2ccccc21 (centres unmarked) [Example 89, 3-(1-methyl-1H-indazol-3-yl)-1-(octahydroquinolin-1(2H)-yl)propan-1-one]
100 to 150 | CC12CCCCC1N(C(=O)CCn1nnc3ccccc31)CCC2 (centres unmarked) [Example 90, 3-(1H-benzotriazol-1-yl)-1-(4a-methyloctahydroquinolin-1(2H)-yl)propan-1-one]
100 to 150 | CC(CC(=O)N1C(C)CCC2CCCCC21)c1c[nH]c2ccc(F)cc12 (centres unmarked) [Example 92, 3-(5-fluoro-1H-indol-3-yl)-1-(2-methyloctahydroquinolin-1(2H)-yl)butan-1-one]
< 100 | O=C(CCc1c[nH]c2ccccc12)N1CCCC2CCCCC21 (centres unmarked) [Example 93, 3-(1H-indol-3-yl)-1-(octahydroquinolin-1(2H)-yl)propan-1-one]
150 to 200 | CC(CC(=O)N1CCCC2CCCCC21)c1cn(C)c2ccccc12 (centres unmarked) [Example 94, 3-(1-methyl-1H-indol-3-yl)-1-(octahydroquinolin-1(2H)-yl)butan-1-one]
< 100 | CC(C)C(CC(=O)N1CCCC2CCCCC21)c1c[nH]c2ccccc12 (centres unmarked) [Example 95, 3-(1H-indol-3-yl)-4-methyl-1-(octahydroquinolin-1(2H)-yl)pentan-1-one]
150 to 200 | Cn1cc(C2CC2C(=O)N2CCCC3CCCCC32)c2ccccc21 (centres unmarked) [Example 97, [2-(1-methyl-1H-indol-3-yl)cyclopropyl](octahydroquinolin-1(2H)-yl)methanone]
